Tested on: MM.1S cells
Assay: Proliferation inhibition (IC50) in MM.1S cells, cell viability assay
Settings: Homo sapiens, MM1.S, 72 h, read-out: IC50 (nM), proliferation inhibitory activity of MM.1S cells (half inhibitory concentration)
Description: MM.1S (B lymphoblast) was purchased from ATCC. Complete medium was RPMI1640 supplemented with 10% FBS and 1% Penicillin-Streptomycin. The cells used were identified as correct cells by STR cells, and were negative for mycoplasma through routine inspections.
IC50 values of the compounds of the present disclosure were measured using Cell Titer Blue, Cell Titer GLO, or WST reagent from Promega Company. Assay details are as follows: Cells were seeded in 100 μL RPMI1640 complete medium containing serum at a density of 15,000 cells/well. After 24 h, the inoculated cells were treated with diluted commercial inhibitor and the compounds of the present disclosure to be tested after serial dilution. After the cells were treated with the compounds of the present disclosure to be tested for 72 h, cell viability was determined after adding the cell viability detection kit listed above according to the reagent operating instructions. The negative control was DMSO, and the positive control was a commercial inhibitor, both of which were used to treat the cells through the same method as that of the compounds of the present disclosure. The growth inhibition of the compounds of the present disclosure on cells was plotted by Prism Graphpad software, and the IC50 values of the compounds of the present disclosure were calculated therefrom.
We tested the activities of the compounds of the present invention in MM.1S cell (which overexpressed IKZF1/3 and is highly sensitive to immunomodulatory drugs) through a dose-dependent manner. The cells were treated with the compounds of the present invention at 10 different successively decreasing concentrations (starting at the highest concentration of 10 μM; 5-fold serial dilutions) for 72 h, and then the cell viability determination was performed in accordance with CCK-8 reagent operating instructions. The experiment was repeated more than three times.

Row | SMILES | IC50
1 | O=C1CCC(N2C(=O)c3cccc(SCCCCCCCNC4CCCCC4)c3C2=O)C(=O)N1 (centres unmarked) [SIAIS1221175, 4-((7-(cyclohexylamino)heptyl)thio)-2-(2,6-dioxopiperidin-3-yl)isoindoline-1,3-dione] | 0.938 nM
2 | O=C1CCC(N2Cc3c(SCCCCCCCNC4CCC4)cccc3C2=O)C(=O)N1 (centres unmarked) [SIAIS1222115, 3-(4-((7-(cyclobutylamino)heptyl)thio)-1-oxoisoindolin-2-yl)piperidine-2,6-dione] | 0.182 nM
3 | CCCCCSc1cccc2c1CN(C1CCC(=O)NC1=O)C2=O (centres unmarked) [SIAIS1213195, 3-(1-oxo-4-(pentylthio)isoindolin-2-yl)piperidine-2,6-dione] | 1.48 ± 0.06 nM
4 | CCN(CC)CCCCCCCSc1cccc2c1CN(C1CCC(=O)NC1=O)C2=O (centres unmarked) [SIAIS1220033, 3-(4-((7-(diethylamino)heptyl)thio)-1-oxoisoindolin-2-yl)piperidine-2,6-dione] | 0.23 ± 0.08 nM
5 | O=C1CCC(N2C(=O)c3cccc(SCCCCCNC45CC6CC(CC(C6)C4)C5)c3C2=O)C(=O)N1 (centres unmarked) [SIAIS1222097, 4-((5-((adamantan-1-yl)amino)pentyl)thio)-2-(2,6-dioxopiperidin-3-yl)isoindoline-1,3-dione] | 0.409 nM
6 | O=C1CCC(N2Cc3c(SCc4ccc(CN5CCCCC5)o4)cccc3C2=O)C(=O)N1 (centres unmarked) [SIAIS313123, 3-(1-oxo-4-(((5-(piperidin-1-ylmethyl)furan-2-yl)methyl)thio)isoindolin-2-yl)piperidine-2,6-dione] | 2.29 ± 0.95 nM
7 | O=C1CCC(N2C(=O)c3ccc(SCCCCCCCNC45CC6CC(CC(C6)C4)C5)cc3C2=O)C(=O)N1 (centres unmarked) [SIAIS1221075, 5-((7-((adamantan-1-yl)amino)heptyl)thio)-2-(2,6-dioxopiperidin-3-yl)isoindoline-1,3-dione] | 15.8 nM
8 | CN(C)CCCCCSc1cccc2c1CN(C1CCC(=O)NC1=O)C2=O (centres unmarked) [SIAIS1216089, 3-(4-((5-(dimethylamino)pentyl)thio)-1-oxoisoindolin-2-yl)piperidine-2,6-dione] | 2.83 ± 0.76 nM
9 | O=C1CCC(N2C(=O)c3cccc(SCc4ccc(CCCN5CCCCC5)cc4)c3C2=O)C(=O)N1 (centres unmarked) [SIAIS1227085, 2-(2,6-dioxopiperidin-3-yl)-4-((4-(3-(piperidin-1-yl)propyl)benzyl)thio)isoindoline-1,3-dione] | 0.37 nM
10 | O=C1CCC(N2Cc3c(SCCc4ccc(CCN5CCCCC5)cc4)cccc3C2=O)C(=O)N1 (centres unmarked) [SIAIS1224117, 3-(1-oxo-4-((4-(2-(piperidin-1-yl)ethyl)phenethyl)thio)isoindolin-2-yl)piperidine-2,6-dione] | 0.19 ± 0.01 nM
11 | O=C1CCC(N2Cc3c(SCc4cc(Br)c(CNC5CCCCC5)cc4Br)cccc3C2=O)C(=O)N1 (centres unmarked) [SIAIS1227141, 3-(4-((2,5-dibromo-4-((cyclohexylamino)methyl)benzyl)thio)-1-oxoisoindolin-2-yl)piperidine-2,6-dione] | 4.98 ± 0.99 nM
12 | CNCCCCCSc1cccc2c1CN(C1CCC(=O)NC1=O)C2=O (centres unmarked) [SIAIS1216141, 3-(4-((5-(methylamino)pentyl)thio)-1-oxoisoindolin-2-yl)piperidine-2,6-dione] | 12.6 ± 3.47 nM
13 | O=C1CCC(N2Cc3c(SCCCCCCCCO)cccc3C2=O)C(=O)N1 (centres unmarked) [SIAIS264006, 3-(4-((8-hydroxyoctyl)thio)-1-oxoisoindolin-2-yl)piperidine-2,6-dione] | 0.83 nM
14 | O=C1CCC(N2Cc3c(SCCCCCCCCCCCN4CCOCC4)cccc3C2=O)C(=O)N1 (centres unmarked) [SIAIS1220045, 3-(4-((11-morpholinoundecyl)thio)-1-oxoisoindolin-2-yl)piperidine-2,6-dione] | 0.36 ± 0.13 nM
15 | CS(=O)(=O)N1CCN(CCCCCCCSc2cccc3c2CN(C2CCC(=O)NC2=O)C3=O)CC1 (centres unmarked) [SIAIS1224039, 3-(4-((7-(4-(methylsulfonyl)piperazin-1-yl)heptyl)thio)-1-oxoisoindolin-2-yl)piperidine-2,6-dione] | 0.54 nM
16 | Cc1ccc(NC(=O)NCCCCCCCCSc2cccc3c2CN(C2CCC(=O)NC2=O)C3=O)cc1Cl (centres unmarked) [SIAIS269072, 1-(3-chloro-4-methylphenyl)-3-(8-((2-(2,6-dioxopiperidin-3-yl)-1-oxoisoindolin-4-yl)thio)octyl)urea] | 0.468 nM
17 | O=C1CCC(N2C(=O)c3cccc(SCCCCCCNC45CC6CC(CC(C6)C4)C5)c3C2=O)C(=O)N1 (centres unmarked) [SIAIS1222109, 4-((6-((adamantan-1-yl)amino)hexyl)thio)-2-(2,6-dioxopiperidin-3-yl)isoindoline-1,3-dione] | 0.404 nM

Stronger by IC50, values ahead:

Row | IC50 | SMILES
18 | 0.17 ± 0.04 nM | O=C1CCC(N2Cc3c(SCCCCCCCCN4CCOCC4)cccc3C2=O)C(=O)N1 (centres unmarked) [SIAIS1216143, 3-(4-((8-morpholinooctyl)thio)-1-oxoisoindolin-2-yl)piperidine-2,6-dione]
19 | 0.13 ± 0.07 nM | O=C1CCC(N2Cc3c(SCc4cccc(CNC5CCCCC5)c4)cccc3C2=O)C(=O)N1 (centres unmarked) [SIAIS1227133, 3-(4-((3-((cyclohexylamino)methyl)benzyl)thio)-1-oxoisoindolin-2-yl)piperidine-2,6-dione]
20 | 0.123 nM | O=C1CCC(N2Cc3c(SCCCCCCCNC4CCCC4)cccc3C2=O)C(=O)N1 (centres unmarked) [SIAIS1222117, 3-(4-((7-(cyclopentylamino)heptyl)thio)-1-oxoisoindolin-2-yl)piperidine-2,6-dione]
21 | 0.12 nM | O=C1CCC(N2Cc3c(SCCCCCCCN4CCCC4)cccc3C2=O)C(=O)N1 (centres unmarked) [SIAIS1220161, 3-(1-oxo-4-((7-(pyrrolidin-1-yl)heptyl)thio)isoindolin-2-yl)piperidine-2,6-dione]
22 | 0.083 nM | O=C1CCC(N2Cc3c(SCCCCCCNCC4CCCCC4)cccc3C2=O)C(=O)N1 (centres unmarked) [SIAIS1222147, 3-(4-((6-((cyclohexylmethyl)amino)hexyl)thio)-1-oxoisoindolin-2-yl)piperidine-2,6-dione]
23 | 0.074 nM | O=C1CCC(N2Cc3c(SCCCCNC45CC6CC(CC(C6)C4)C5)cccc3C2=O)C(=O)N1 (centres unmarked) [SIAIS1222179, 3-(4-((4-((adamantan-1-yl)amino)butyl)thio)-1-oxoisoindolin-2-yl)piperidine-2,6-dione]
24 | 0.07 nM | O=C1CCC(N2Cc3c(SCCCCCCCCNC4C5CC6CC(C5)CC4C6)cccc3C2=O)C(=O)N1 (centres unmarked) [SIAIS1220089, 3-(4-((8-((adamantan-2-yl)amino)octyl)thio)-1-oxoisoindolin-2-yl)piperidine-2,6-dione]
25 | 0.064 nM | O=C1CCC(N2Cc3c(SCc4ccc(CN5CCC(F)(F)CC5)cc4)cccc3C2=O)C(=O)N1 (centres unmarked) [SIAIS1227167, 3-(4-((4-((4,4-difluoropiperidin-1-yl)methyl)benzyl)thio)-1-oxoisoindolin-2-yl)piperidine-2,6-dione]
26 | 0.06 nM | O=C1CCC(N2Cc3c(SCCCCCCCN4CCCCC4)cccc3C2=O)C(=O)N1 (centres unmarked) [SIAIS1220105, 3-(1-oxo-4-((7-(piperidin-1-yl)heptyl)thio)isoindolin-2-yl)piperidine-2,6-dione]
27 | 0.051 nM | O=C1CCC(N2Cc3c(SCc4ccc(CNC56CC7CC(CC5C7)C6)cc4)cccc3C2=O)C(=O)N1 (centres unmarked) [SIAIS1228019, 3-(4-((4-(((hexahydro-2,5-methanopentalen-3a(1H)-yl)amino)methyl)benzyl)thio)-1-oxoisoindolin-2-yl)piperidine-2,6-dione]
28 | 0.048 nM | O=C1CCC(N2Cc3c(SCCCCCCC(=O)NC45CC6CC(CC(C6)C4)C5)cccc3C2=O)C(=O)N1 (centres unmarked) [SIAIS1220195, N-(adamantan-1-yl)-7-((2-(2,6-dioxopiperidin-3-yl)-1-oxoisoindolin-4-yl)thio)heptanamide]
29 | 0.046 nM | O=C1CCC(N2Cc3c(SCCCCCCCN4CCSCC4)cccc3C2=O)C(=O)N1 (centres unmarked) [SIAIS1224125, 3-(1-oxo-4-((7-thiomorpholinoheptyl)thio)isoindolin-2-yl)piperidine-2,6-dione]
30 | 0.04 ± 0.02 nM | O=C1CCC(N2Cc3c(SCCCc4ccc(CNC56CC7CC(CC(C7)C5)C6)cc4)cccc3C2=O)C(=O)N1 (centres unmarked) [SIAIS1227037, 3-(4-((3-(4-(((adamantan-1-yl)amino)methyl)phenyl)propyl)thio)-1-oxoisoindolin-2-yl)piperidine-2,6-dione]
31 | 0.035 ± 0.007 nM | O=C1CCC(N2Cc3c(SCc4ccc(CNC5C6CC7CC(C6)CC5C7)cc4)cccc3C2=O)C(=O)N1 (centres unmarked) [SIAIS1221005, 3-(4-((4-((adamantan-2-ylamino)methyl)benzyl)thio)-1-oxoisoindolin-2-yl)piperidine-2,6-dione]
32 | 0.03 ± 0.01 nM | O=C1CCC(N2Cc3c(SCCCCCCCN4CCCCCCC4)cccc3C2=O)C(=O)N1 (centres unmarked) [SIAIS1220193, 3-(4-((7-(azocan-1-yl)heptyl)thio)-1-oxoisoindolin-2-yl)piperidine-2,6-dione]
33 | 0.026 ± 0.007 nM | O=C1CCC(N2Cc3c(SCCCCCCCNC4CCCCC4)cccc3C2=O)C(=O)N1 (centres unmarked) [SIAIS1220185, 3-(4-((7-(cyclohexylamino)heptyl)thio)-1-oxoisoindolin-2-yl)piperidine-2,6-dione]
34 | 0.026 ± 0.001 nM | O=C1CCC(N2Cc3c(SCCCCCCC(=O)NC4C5CC6CC(C5)CC4C6)cccc3C2=O)C(=O)N1 (centres unmarked) [SIAIS1220199, N-(adamantan-2-yl)-7-((2-(2,6-dioxopiperidin-3-yl)-1-oxoisoindolin-4-yl)thio)heptanamide]
35 | 0.024 ± 0.01 nM | O=C1CCC(N2Cc3c(SCc4ccc(CNC56CC7CC(CC(C7)C5)C6)cc4)cccc3C2=O)C(=O)N1 (centres unmarked) [SIAIS1221003, 3-(4-((4-(((adamantan-1-yl)amino)methyl)benzyl)thio)-1-oxoisoindolin-2-yl)piperidine-2,6-dione]
36 | 0.021 ± 0.004 nM | O=C1CCC(N2Cc3c(SCc4ccc(CCNC5CCCCC5)cc4)cccc3C2=O)C(=O)N1 (centres unmarked) [SIAIS1224155, 3-(4-((4-(2-(cyclohexylamino)ethyl)benzyl)thio)-1-oxoisoindolin-2-yl)piperidine-2,6-dione]
37 | 0.021 nM | O=C1CCC(N2Cc3c(SCc4ccc(CCN5CCC6(CC5)CC6)cc4)cccc3C2=O)C(=O)N1 (centres unmarked) [SIAIS1227163, 3-(4-((4-(2-(6-azaspiro[2.5]octan-6-yl)ethyl)benzyl)thio)-1-oxoisoindolin-2-yl)piperidine-2,6-dione]
38 | 0.02 nM | CC1(C)CCC(NCCc2ccc(CSc3cccc4c3CN(C3CCC(=O)NC3=O)C4=O)cc2)CC1 (centres unmarked) [SIAIS1227103, 3-(4-((4-(2-((4,4-dimethylcyclohexyl)amino)ethyl)benzyl)thio)-1-oxoisoindolin-2-yl)piperidine-2,6-dione]

Reference: patent US12582641B2, “Sulfur-containing compound based on glutarimide skeleton and application thereof” (SHANGHAITECH UNIVERSITY, priority 2019, dated 2026)
